From ChEMBL document CHEMBL1139062, “Synthesis and biological evaluation of new conformationally biased integrin ligands based on a tetrahydroazoninone scaffold” (Bioorg Med Chem Lett, 2007)

Legend:
Assay type in all cases: protein-complex assay
[1] = molecular target: T1, Integrin alpha-V/beta-3 (Homo sapiens) (UniProt P05106+P06756); experiment: Displacement of [125I]echistatin from integrin alpha-V-beta-3 receptor at 0.001 uM
[2] = molecular target: T1, Integrin alpha-V/beta-3 (Homo sapiens); experiment: Displacement of [125I]echistatin from integrin alpha-V-beta-3 receptor at 10 uM
[3] = molecular target: T1, Integrin alpha-V/beta-3 (Homo sapiens); experiment: Displacement of [125I]echistatin from integrin alpha-V-beta-3 receptor at 1 uM
[4] = molecular target: T2, Integrin alpha-V/beta-5 (Homo sapiens) (UniProt P06756+P18084); experiment: Displacement of [125I]echistatin from integrin alpha-V-beta-5 receptor at 1000 uM
[5] = molecular target: T2, Integrin alpha-V/beta-5 (Homo sapiens); experiment: Displacement of [125I]echistatin from integrin alpha-V-beta-5 receptor at […]
[6] = molecular target: T1, Integrin alpha-V/beta-3 (Homo sapiens); experiment: Displacement of [125I]echistatin from integrin alpha-V-beta-3 receptor at 0.1 uM
[7] = molecular target: T1, Integrin alpha-V/beta-3 (Homo sapiens); experiment: Displacement of [125I]echistatin from integrin alpha-V-beta-3 receptor at 0.01 uM

SMILES | inhibition [1] | inhibition [2] | inhibition [3] | inhibition [4] | inhibition [5] | inhibition [6] | inhibition [7]
N=C(N)NCCC[C@@H]1NC(=O)CNC(=O)[C@@H](CC(=O)O)N[C@H]2CCC[C@H]3CC[C@H](C1=O)N3C2=O | 85% | – | – | – | – | – | –
CC12CC/C=C\CC(NC1=O)C(=O)N[C@H](CCCNC(=N)N)C(=O)NCC(=O)N[C@@H](CC(=O)O)C(=O)N2Cc1ccccc1 (stereo in doubt; 2a) | – | 48% | 49% | 13% | 17% | – | –
CC12CC/C=C\CC(NC1=O)C(=O)N[C@H](CCCNC(=N)N)C(=O)NCC(=O)N[C@@H](CC(=O)O)C(=O)N2Cc1ccccc1 (stereo in doubt; 2b) | 5% | 52% | 50% | 13% | 15% | 53% | 15%

Second part, the compound after the results:

inhibition [1] | inhibition [2] | inhibition [3] | inhibition [4] | inhibition [5] | inhibition [6] | inhibition [7] | SMILES
– | 62% | 30% | – | – | – | – | CC12CC/C=C\CC(NC1=O)C(=O)N[C@H](CCCNC(=N)N)C(=O)NCC(=O)N[C@@H](CC(=O)O)C(=O)N2 (stereo in doubt; 3a)
– | 62% | 30% | – | – | – | – | CC12CC/C=C\CC(NC1=O)C(=O)N[C@H](CCCNC(=N)N)C(=O)NCC(=O)N[C@@H](CC(=O)O)C(=O)N2 (stereo in doubt; 3b)
